Experimental data as given in ChEMBL document CHEMBL1201862, “PubChem BioAssay data set” (2004).
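96-well plates; 48 h exposure; 5 concentrations. Endpoints by linear interpolation between flanking doses. Not reached: highest tested concentration assigned. GI50 = concentration required for 50% inhibition of growth.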 The source made the active and inactive calls. Cut-off read from the data, not from the text of the source: active = GI50 up to about 1.1 µM and inactive = higher.

Columns and labels:
Experiment in all cases: growth of human tumour cells (NCI), 48 h
SF-539 = system: SF-539
K562 = system: K562
MDA-MB-435 = system: MDA-MB-435
BT-549 = system: BT-549
TK-10 = system: TK-10
Hs-578T = system: Hs-578T
MOLT-4 = system: MOLT-4
ACHN = system: ACHN
SW-620 = system: SW-620
OVCAR-4 = system: OVCAR-4
KM12 = system: KM12
CAKI-1 = system: CAKI-1
UO-31 = system: UO-31
IGROV-1 = system: IGROV-1
T47D = system: T47D
HCT-116 = system: HCT-116
RXF 393 = system: RXF 393
OVCAR-3 = system: OVCAR-3
Malme-3M = system: Malme-3M

| SMILES | GI50 (SF-539) | GI50 (K562) | GI50 (MDA-MB-435) | GI50 (BT-549) | GI50 (TK-10) | GI50 (Hs-578T) | GI50 (MOLT-4) | GI50 (ACHN) | GI50 (SW-620) | GI50 (OVCAR-4) | GI50 (KM12) | GI50 (CAKI-1) | GI50 (UO-31) | GI50 (IGROV-1) | GI50 (T47D) | GI50 (HCT-116) | GI50 (RXF 393) | GI50 (OVCAR-3) | GI50 (Malme-3M) |
| --- | --- | --- | --- | --- | --- | --- | --- | --- | --- | --- | --- | --- | --- | --- | --- | --- | --- | --- | --- |
| CC1CNC(c2ccc(CN3CCC(CCCC4CCN(Cc5ccc(C6=NC(C)CN6)cc5)CC4)CC3)cc2)=N1 (stereo not given) | 29.6 µM (inactive) | 35 µM (inactive) | 17.2 µM (inactive) | > 100 µM (inactive) | 75.3 µM (inactive) | > 100 µM (inactive) | 19.4 µM (inactive) | > 100 µM (inactive) | 30.5 µM (inactive) | 19.7 µM (inactive) | 16.9 µM (inactive) | > 100 µM (inactive) | > 100 µM (inactive) | > 100 µM (inactive) | 50 µM (inactive) | 29 µM (inactive) | 27.4 µM (inactive) | > 100 µM (inactive) | > 100 µM (inactive) |
| C[C@H]1[C@H]2[C@H](C[C@@]3(C)C4=CC[C@H]5C(C)(C)[C@@H](OC6OCC(O)C(O)C6O)CC[C@@]56C[C@@]46CC[C@]23C)O[C@@]2(O)[C@@H]1OC(C)(C)[C@H]2O (stereo not given in full) | 1.95 µM (inactive) | 2.39 µM (inactive) | 0.984 µM (active) | 1.86 µM (inactive) | 1.17 µM (inactive) | 0.682 µM (active) | 3.96 µM (inactive) | 2.12 µM (inactive) | 1.13 µM (inactive) | 1.92 µM (inactive) | 1.48 µM (inactive) | 2.05 µM (inactive) | 3.57 µM (inactive) | 0.918 µM (active) | 0.83 µM (active) | 1.45 µM (inactive) | 1.2 µM (inactive) | 3.01 µM (inactive) | 0.993 µM (active) |
| Cc1ccc(-c2cc(-c3ccc(Cl)cc3)nc(/N=C3\C(=O)N(CN(C)C)c4ccccc43)n2)cc1 | > 100 µM (inactive) | 27.3 µM (inactive) | 17.1 µM (inactive) | 78.5 µM (inactive) | 85.3 µM (inactive) | 54.8 µM (inactive) | 11.5 µM (inactive) | 64.1 µM (inactive) | 12.9 µM (inactive) | 41.2 µM (inactive) | 64.6 µM (inactive) | 87.9 µM (inactive) | 90.8 µM (inactive) | 53.5 µM (inactive) | 28.8 µM (inactive) | 64 µM (inactive) | 22.3 µM (inactive) | > 100 µM (inactive) | > 100 µM (inactive) |
| COC(=O)C1(Cc2ccccc2C)Cc2ccc(C)cc2C1=O (stereo not given) | 37.5 µM (inactive) | 42.2 µM (inactive) | 32.3 µM (inactive) | 49.1 µM (inactive) | 15.5 µM (inactive) | 33.2 µM (inactive) | 23.6 µM (inactive) | 34.9 µM (inactive) | 45 µM (inactive) | 36.6 µM (inactive) | 31.2 µM (inactive) | 36.1 µM (inactive) | 36.6 µM (inactive) | 70.5 µM (inactive) | 22.8 µM (inactive) | 27.2 µM (inactive) | 28.6 µM (inactive) | 27.7 µM (inactive) | 23.2 µM (inactive) |
| S=C1c2cc(Cl)ccc2N=C(NC2CCCC2)C2CSCN12 (stereo not given) | 89.9 µM (inactive) | > 68.7 µM (inactive) | > 91.8 µM (inactive) | > 100 µM (inactive) | > 100 µM (inactive) | > 96.6 µM (inactive) | > 57.7 µM (inactive) | > 100 µM (inactive) | > 85.3 µM (inactive) | > 100 µM (inactive) | > 41.4 µM (inactive) | > 100 µM (inactive) | > 100 µM (inactive) | > 100 µM (inactive) | > 55 µM (inactive) | > 74.5 µM (inactive) | > 69.7 µM (inactive) | > 68.7 µM (inactive) | > 100 µM (inactive) |
